# Data as given in PubChem BioAssay AID1918956 (Molecular Pharmacology Branch, DTP, NCI, 2023).
# Where “and” joins values, the source holds several entries; their conditions need not be identical. Equal entries are not always repeated.
# Tested on: OVCAR-5 complex spheroids, viability
# Test: Anticancer human tumor OVCAR-5 cell line growth inhibition;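 note: spheroids exposed to agents for seven days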;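 for viability, T/C: 100% = DMSO vehicle control wells viability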
# Settings: for viability, T/C: stronger effect = lower value
# Procedure, shortened: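 Complex spheroids of tumor cells with HUVEC and human MSCs, exposed to iadademstat combined with other agents. Each agent tested in half-log steps from near clinical Cmax (else 10 microM top), DMSO ≤0.25%.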
# [1] = curve of first compound, second compound 0.1 µM
# [2] = curve of first compound, second compound 0.316 µM
# [3] = curve of first compound, second compound 1 µM
# [4] = curve of first compound, second compound 3.16 µM
# [5] = curve of first compound, second compound 10 µM
# [6] = second compound 0.1 µM, first compound 0.0316 µM
# [7] = second compound 0.1 µM, first compound 0.1 µM
# [8] = second compound 0.1 µM, first compound 0.316 µM
# [9] = second compound 0.1 µM, first compound 1 µM
# [10] = second compound 0.316 µM, first compound 0.0316 µM
# [11] = second compound 0.316 µM, first compound 0.1 µM
# [12] = second compound 0.316 µM, first compound 0.316 µM
# [13] = second compound 0.316 µM, first compound 1 µM
# [14] = second compound 1 µM, first compound 0.0316 µM
# [15] = second compound 1 µM, first compound 0.1 µM
# [16] = second compound 1 µM, first compound 0.316 µM
# [17] = second compound 1 µM, first compound 1 µM
# [18] = second compound 3.16 µM, first compound 0.0316 µM
# [19] = second compound 3.16 µM, first compound 0.1 µM
# [20] = second compound 3.16 µM, first compound 0.316 µM
# [21] = second compound 3.16 µM, first compound 1 µM
# [22] = second compound 10 µM, first compound 0.0316 µM
# [23] = second compound 10 µM, first compound 0.1 µM
# [24] = second compound 10 µM, first compound 0.316 µM
# [25] = second compound 10 µM, first compound 1 µM
# [26] = second compound 0.1 µM, first compound 0.00949 µM
# [27] = second compound 0.1 µM, first compound 0.03 µM
# [28] = second compound 0.1 µM, first compound 0.0949 µM
# [29] = second compound 0.1 µM, first compound 0.3 µM
# [30] = second compound 0.316 µM, first compound 0.00949 µM
# [31] = second compound 0.316 µM, first compound 0.03 µM
# [32] = second compound 0.316 µM, first compound 0.0949 µM
# [33] = second compound 0.316 µM, first compound 0.3 µM
# [34] = second compound 1 µM, first compound 0.00949 µM
# [35] = second compound 1 µM, first compound 0.03 µM
# [36] = second compound 1 µM, first compound 0.0949 µM
# [37] = second compound 1 µM, first compound 0.3 µM
# [38] = second compound 3.16 µM, first compound 0.00949 µM
# [39] = second compound 3.16 µM, first compound 0.03 µM
# [40] = second compound 3.16 µM, first compound 0.0949 µM
# [41] = second compound 3.16 µM, first compound 0.3 µM
# [42] = second compound 10 µM, first compound 0.00949 µM
# [43] = second compound 10 µM, first compound 0.03 µM
# [44] = second compound 10 µM, first compound 0.0949 µM
# [45] = second compound 10 µM, first compound 0.3 µM
smiles,measurement,setting,value
Nc1ncn(C2CC(O)C(CO)O2)c(=O)n1 (stereo not drawn) + NC1CC1c1ccc(-c2cccc(O)c2)cc1,IC50,[1],> 1 µM
same,IC50,[2],> 1 µM
same,IC50,[3],> 1 µM
same,IC50,[4],> 1 µM
same,IC50,[5],> 1 µM
same,"viability, T/C","second compound 0.1 µM, first compound 0.00316 µM",103%
same,"viability, T/C","second compound 0.1 µM, first compound 0.01 µM",98.5%
same,"viability, T/C",[6],83.4%
same,"viability, T/C",[7],74.2%
same,"viability, T/C",[8],68.2%
same,"viability, T/C",[9],65.8%
same,"viability, T/C","second compound 0.316 µM, first compound 0.00316 µM",93.6%
same,"viability, T/C","second compound 0.316 µM, first compound 0.01 µM",98.5%
same,"viability, T/C",[10],87.4%
same,"viability, T/C",[11],70.5%
same,"viability, T/C",[12],70.2%
same,"viability, T/C",[13],66.2%
same,"viability, T/C","second compound 1 µM, first compound 0.00316 µM",94.9%
same,"viability, T/C","second compound 1 µM, first compound 0.01 µM",99.6%
same,"viability, T/C",[14],87.6%
same,"viability, T/C",[15],66.1%
same,"viability, T/C",[16],67.8%
same,"viability, T/C",[17],66.7%
same,"viability, T/C","second compound 3.16 µM, first compound 0.00316 µM",89%
same,"viability, T/C","second compound 3.16 µM, first compound 0.01 µM",85.9%
same,"viability, T/C",[18],70.3%
same,"viability, T/C",[19],72%
same,"viability, T/C",[20],61.1%
same,"viability, T/C",[21],64.5%
same,"viability, T/C","second compound 10 µM, first compound 0.00316 µM",83%
same,"viability, T/C","second compound 10 µM, first compound 0.01 µM",80.1%
same,"viability, T/C",[22],72%
same,"viability, T/C",[23],60.3%
same,"viability, T/C",[24],58%
same,"viability, T/C",[25],61.2%
COc1cc(Nc2ncc3c(n2)-c2ccc(Cl)cc2C(c2c(F)cccc2OC)=NC3)ccc1C(=O)O,"viability, T/C",compound 0.00316 µM,94.1% and 95.2%
same,"viability, T/C",compound 0.01 µM,88.5% and 86.9%
same,"viability, T/C",compound 0.0316 µM,74.8% and 74.2%
same,"viability, T/C",compound 0.1 µM,59.8% and 52.2%
same,"viability, T/C",compound 0.316 µM,57% and 49%
same,"viability, T/C",compound 1 µM,53.1% and 49.2%
same,IC50,curve of compound,> 1 µM and 0.25 µM
Nc1ncn(C2CC(O)C(CO)O2)c(=O)n1 (stereo not drawn),"viability, T/C",compound 0.00316 µM,93.5% and 108%
same,"viability, T/C",compound 0.01 µM,94% and 87.9%
same,"viability, T/C",compound 0.0316 µM,88.2% and 75.7%
same,"viability, T/C",compound 0.1 µM,77.1% and 76.2%
same,"viability, T/C",compound 0.316 µM,72.5% and 69%
same,"viability, T/C",compound 1 µM,72.5% and 69.2%
same,IC50,curve of compound,> 1 µM
Nc1ncn(C2CC(O)C(CO)S2)c(=O)n1 (stereo not drawn) + NC1CC1c1ccc(-c2cccc(O)c2)cc1,IC50,[1],> 0.3 µM
same,IC50,[2],> 0.3 µM
same,IC50,[3],> 0.3 µM
same,IC50,[4],> 0.3 µM
same,IC50,[5],> 0.3 µM
same,"viability, T/C","second compound 0.1 µM, first compound 0.000949 µM",100%
same,"viability, T/C","second compound 0.1 µM, first compound 0.003 µM",110%
same,"viability, T/C",[26],104%
same,"viability, T/C",[27],95%
same,"viability, T/C",[28],80.9%
same,"viability, T/C",[29],71.2%
same,"viability, T/C","second compound 0.316 µM, first compound 0.000949 µM",107%
same,"viability, T/C","second compound 0.316 µM, first compound 0.003 µM",112%
same,"viability, T/C",[30],108%
same,"viability, T/C",[31],96.2%
same,"viability, T/C",[32],88.5%
same,"viability, T/C",[33],69.8%
same,"viability, T/C","second compound 1 µM, first compound 0.000949 µM",93.7%
same,"viability, T/C","second compound 1 µM, first compound 0.003 µM",86.6%
same,"viability, T/C",[34],93.9%
same,"viability, T/C",[35],92.4%
same,"viability, T/C",[36],74.7%
same,"viability, T/C",[37],61.7%
same,"viability, T/C","second compound 3.16 µM, first compound 0.000949 µM",95.8%
same,"viability, T/C","second compound 3.16 µM, first compound 0.003 µM",97.8%
same,"viability, T/C",[38],91.3%
same,"viability, T/C",[39],81.6%
same,"viability, T/C",[40],79.8%
same,"viability, T/C",[41],64.4%
same,"viability, T/C","second compound 10 µM, first compound 0.000949 µM",79%
same,"viability, T/C","second compound 10 µM, first compound 0.003 µM",93.6%
same,"viability, T/C",[42],84.8%
same,"viability, T/C",[43],78.1%
same,"viability, T/C",[44],70%
same,"viability, T/C",[45],60%
CC1(C)CCC(CN2CCN(c3ccc(C(=O)NS(=O)(=O)c4ccc(NCC5CCOCC5)c([N+](=O)[O-])c4)c(Oc4cnc5[nH]ccc5c4)c3)CC2)=C(c2ccc(Cl)cc2)C1 + NC1CC1c1ccc(-c2cccc(O)c2)cc1,IC50,[1],7.44 µM
same,IC50,[2],7.76 µM
same,IC50,[3],7.37 µM
same,IC50,[4],7.61 µM
same,IC50,[5],7.57 µM
same,"viability, T/C",[6],99.4%
same,"viability, T/C",[7],97.3%
same,"viability, T/C",[8],110%
same,"viability, T/C",[9],97.2%
same,"viability, T/C","second compound 0.1 µM, first compound 3.16 µM",103%
same,"viability, T/C","second compound 0.1 µM, first compound 10 µM",32.1%
same,"viability, T/C",[10],107%
same,"viability, T/C",[11],112%
same,"viability, T/C",[12],106%
same,"viability, T/C",[13],101%
same,"viability, T/C","second compound 0.316 µM, first compound 3.16 µM",100%
same,"viability, T/C","second compound 0.316 µM, first compound 10 µM",35.6%
same,"viability, T/C",[14],110%
same,"viability, T/C",[15],92.4%
same,"viability, T/C",[16],93.3%
same,"viability, T/C",[17],105%
same,"viability, T/C","second compound 1 µM, first compound 3.16 µM",94.4%
same,"viability, T/C","second compound 1 µM, first compound 10 µM",33.7%
same,"viability, T/C",[18],103%
same,"viability, T/C",[19],86.9%
same,"viability, T/C",[20],88.5%
same,"viability, T/C",[21],106%
same,"viability, T/C","second compound 3.16 µM, first compound 3.16 µM",96%
same,"viability, T/C","second compound 3.16 µM, first compound 10 µM",35.7%
same,"viability, T/C",[22],89.3%
same,"viability, T/C",[23],85%
same,"viability, T/C",[24],85.9%
same,"viability, T/C",[25],86%
same,"viability, T/C","second compound 10 µM, first compound 3.16 µM",85%
same,"viability, T/C","second compound 10 µM, first compound 10 µM",38.9%
CCc1c2c(nc3ccc(O)cc13)-c1cc3c(c(=O)n1C2)COC(=O)[C@]3(O)CC,"viability, T/C",compound 0.000949 µM,39.2% and 30.3%
same,"viability, T/C",compound 0.003 µM,21.2% and 19.1%
same,"viability, T/C",compound 0.00949 µM,8.48% and 7.2%
same,"viability, T/C",compound 0.03 µM,3.26% and 2.51%
same,"viability, T/C",compound 0.0949 µM,1.15% and 0.63%
same,"viability, T/C",compound 0.3 µM,0.68% and 0.54%
same,IC50,curve of compound,< 0.000949 µM
CCN(c1cc(-c2ccc(CN3CCOCC3)cc2)cc(C(=O)NCc2c(C)cc(C)[nH]c2=O)c1C)C1CCOCC1 + NC1CCC(NC2CC2c2ccccc2)CC1,IC50,[1],> 3 µM
same,IC50,[2],> 3 µM
same,IC50,[3],> 3 µM
same,IC50,[4],> 3 µM
same,IC50,[5],> 3 µM
same,"viability, T/C",[26],116%
same,"viability, T/C",[27],110%
same,"viability, T/C",[28],96.1%
same,"viability, T/C",[29],100%
same,"viability, T/C","second compound 0.1 µM, first compound 0.949 µM",106%
same,"viability, T/C","second compound 0.1 µM, first compound 3 µM",101%
same,"viability, T/C",[30],109%
same,"viability, T/C",[31],114%
same,"viability, T/C",[32],101%
same,"viability, T/C",[33],108%
same,"viability, T/C","second compound 0.316 µM, first compound 0.949 µM",103%
same,"viability, T/C","second compound 0.316 µM, first compound 3 µM",101%
same,"viability, T/C",[34],92.4%
same,"viability, T/C",[35],105%
same,"viability, T/C",[36],90.6%
same,"viability, T/C",[37],97%
same,"viability, T/C","second compound 1 µM, first compound 0.949 µM",96.5%
same,"viability, T/C","second compound 1 µM, first compound 3 µM",87.6%
same,"viability, T/C",[38],96%
same,"viability, T/C",[39],94.5%
same,"viability, T/C",[40],94%
same,"viability, T/C",[41],81.4%
same,"viability, T/C","second compound 3.16 µM, first compound 0.949 µM",89.9%
same,"viability, T/C","second compound 3.16 µM, first compound 3 µM",94.4%
same,"viability, T/C",[42],88.2%
same,"viability, T/C",[43],82.1%
same,"viability, T/C",[44],93.7%
same,"viability, T/C",[45],79.9%
same,"viability, T/C","second compound 10 µM, first compound 0.949 µM",72.5%
same,"viability, T/C","second compound 10 µM, first compound 3 µM",76.4%
NS(=O)(=O)OCC1CC(n2ccc3c(NC4CCc5ccccc54)ncnc32)CC1O (stereo not drawn),"viability, T/C",compound 0.00949 µM,105% and 120%
same,"viability, T/C",compound 0.03 µM,102% and 114%
same,"viability, T/C",compound 0.0949 µM,82.6% and 75.8%
same,"viability, T/C",compound 0.3 µM,37.4% and 25.6%
same,"viability, T/C",compound 0.949 µM,16.1% and 7.66%
same,"viability, T/C",compound 3 µM,9.41% and 4.92%
same,IC50,curve of compound,0.219 µM and 0.172 µM
